Values of other authors as cited in patent publication US20220054538A1, “ANTI-HELICOBACTER AGENT AND METHOD FOR THE USE THEREOF” (priority 2018, published 2022).

Tested on: Helicobacter pylori culture
Conditions: in vitro

For calcium pectate, the “effect on Helicobacter pylori culture” value is given as “significant effect”.
